Experimental data published in PubChem BioAssay (NCI).
“And” between values parts separate entries of the source, which are not always exact repeats. Equal values may be shown once.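 Tested at 5 concentrations; 48 h exposure; 96-well plates; endpoints linearly interpolated, else capped at highest concentration. Abbreviation: GI50, concentration required for 50% inhibition of growth. At the TGI there is no net growth.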

How the values were obtained:
Assay in all cases: NCI tumour cell line growth inhibition, 48 h
DU-145 prostate = system: DU-145 prostate
HOP-62 NSCLC = system: HOP-62 NSCLC
MDA-MB-231 breast = system: MDA-MB-231 breast
NCI-H226 lung = system: NCI-H226 lung
NCI-H522 lung = system: NCI-H522 lung
SK-MEL-5 melanoma = system: SK-MEL-5 melanoma
SR leukemia = system: SR leukemia
UACC-257 melanoma = system: UACC-257 melanoma
UACC-62 melanoma = system: UACC-62 melanoma
UO-31 renal = system: UO-31 renal

Compound	TGI (DU-145 prostate)	TGI (HOP-62 NSCLC)	TGI (MDA-MB-231 breast)	TGI (NCI-H226 lung)	TGI (NCI-H522 lung)	TGI (SK-MEL-5 melanoma)	TGI (SR leukemia)	TGI (UACC-257 melanoma)	TGI (UACC-62 melanoma)	TGI (UO-31 renal)	GI50 (DU-145 prostate)	GI50 (HOP-62 NSCLC)	GI50 (MDA-MB-231 breast)	GI50 (NCI-H226 lung)	GI50 (NCI-H522 lung)	GI50 (SK-MEL-5 melanoma)	GI50 (SR leukemia)	GI50 (UACC-257 melanoma)	GI50 (UACC-62 melanoma)	GI50 (UO-31 renal)
Cn1c(=O)c2[nH]c(CS(=O)(=O)Cc3nc4c([nH]3)c(=O)n(C)c(=O)n4C)nc2n(C)c1=O	> 100 µM	> 100 µM	> 100 µM	> 100 µM	> 100 µM	> 100 µM	> 100 µM	> 100 µM	> 100 µM	> 100 µM	–	–	–	–	–	–	–	–	–	–
CC1(C)N=C(N)N=C(N)N1c1cc(Cl)ccc1Cl	> 100 µM	> 100 µM	> 100 µM	> 100 µM	> 100 µM	> 100 µM	> 100 µM	> 100 µM	> 100 µM	> 100 µM	28.3 µM	> 100 µM	> 100 µM	> 100 µM	46 µM	> 100 µM	> 100 µM	> 100 µM	> 100 µM	> 100 µM
S=C(Nc1ccc(Cl)cc1)Nc1ccc(-c2nc3ccccc3[nH]2)cc1	–	30 µM	12.8 µM	> 46.6 µM	13.3 µM	23.2 µM	> 21.5 µM	> 52 µM	14.8 µM	> 29.4 µM	12.1 µM	15 µM	3.14 µM	10 µM	4.63 µM	6.37 µM	8.07 µM	14.7 µM	5.15 µM	5.86 µM
O=C(NOCC1CC1)c1ccc(F)c(F)c1Nc1ccc(I)cc1Cl	> 100 µM	> 100 µM	14.7 µM	> 52.1 µM	8.51 µM	5.83 µM	12.1 µM	0.517 µM	1.41 µM	6.62 µM	4.07 µM	2.04 µM	0.672 µM	2.77 µM	1.94 µM	1.15 µM	3.04 µM	0.0549 µM	0.064 µM	1.23 µM
O=C1CCC2(C=C(Br)C(=O)C(Br)=C2)O1	15.5 µM	39.8 µM	33.6 µM	36.2 µM	1.05 µM	30 µM	9.69 µM	9.28 µM	29 µM	11.4 µM	5.44 µM	20.8 µM	15.4 µM	17.6 µM	0.31 µM	16.4 µM	2.59 µM	3.52 µM	14.8 µM	5.54 µM
O=[N+]([O-])/C=C/c1c[nH]c2ccccc12	32.5 µM	36.5 µM	30.7 µM	40.4 µM	28.9 µM	32.1 µM	7.18 µM	30.6 µM	32.3 µM	27.2 µM	15.5 µM	21.4 µM	15.2 µM	18.1 µM	14.8 µM	16 µM	2.92 µM	16.5 µM	17.4 µM	13.4 µM
COc1nc(C)cc2c(=O)n(-c3ccccc3)n(CCCN3CCN(c4ccc(Cl)cc4)CC3)c(=O)c12	> 50 µM	> 50 µM	> 50 µM	> 50 µM	> 50 µM	> 50 µM	> 50 µM	–	> 50 µM	> 50 µM	> 50 µM	24.5 µM	39.5 µM	> 50 µM	28.6 µM	16.9 µM	> 50 µM	–	39.9 µM	31.9 µM
O=C(C(Br)Br)C(Br)C(Br)c1ccccc1 (stereo not drawn)	23.6 µM	8.1 µM	20.6 µM	15.4 µM	3.48 µM	22.7 µM	3.68 µM	7.24 µM	11.5 µM	7.86 µM	11.4 µM	2.74 µM	5.4 µM	3.31 µM	1.81 µM	10.6 µM	1.61 µM	2.39 µM	3.25 µM	2.5 µM
CCN(CC)CCCCCCCNc1c2ccc(Cl)cc2nc2ccc(OC)cc12	2 µM	2.54 µM	3.86 µM	4.42 µM	2.83 µM	3.09 µM	0.634 µM	3.08 µM	4.09 µM	2.03 µM	0.66 µM	0.943 µM	1.48 µM	1.83 µM	1.2 µM	1.68 µM	0.238 µM	1.27 µM	2.04 µM	0.545 µM
O=C(Nc1ccc(Cl)cc1)c1cc2ccccc2cc1O	> 100 µM	> 100 µM	> 100 µM	82.2 µM	6.88 µM	5.51 µM	> 100 µM	7.91 µM	> 100 µM	> 100 µM	3.18 µM	3.34 µM	5.83 µM	2.59 µM	1.25 µM	1.84 µM	3.93 µM	3.25 µM	0.899 µM	2.03 µM
CN(C)CCCNC(=O)c1cc(NC(=O)c2cc(NC(=O)c3cc(NC(=O)CCc4c[nH]c5ccccc45)cn3C)cn2C)cn1C	> 100 µM	> 100 µM	> 100 µM	> 100 µM	> 100 µM	> 100 µM	> 100 µM	> 100 µM	> 100 µM	> 100 µM	> 100 µM	> 100 µM	> 100 µM	> 100 µM	> 100 µM	> 100 µM	> 100 µM	> 100 µM	> 100 µM	> 100 µM
C[C@]12CCC(=O)C(O)=C1CC[C@@H]1[C@@H]2CC[C@]2(C)C(=O)CC[C@@H]12	> 100 µM	> 100 µM	> 100 µM	> 100 µM	> 100 µM	> 100 µM	> 100 µM	> 100 µM	> 100 µM	> 100 µM	–	–	–	–	–	–	–	–	–	–
COc1ccc(/C=C\c2cc(OC)c(OC)c(OC)c2)cc1OCC(=O)Nc1nc2ccc(C(F)(F)F)cc2s1	6.56 µM	> 100 µM	> 100 µM	31.3 µM	19.6 µM	13.9 µM	> 100 µM	> 100 µM	> 100 µM	> 100 µM	2.51 µM	5.22 µM	3.38 µM	3.17 µM	2.89 µM	2.84 µM	3.35 µM	40 µM	3.9 µM	3.59 µM
CCOC(CN=c1nc(N(C)C)ss1)OCC	> 100 µM	> 100 µM	29.8 µM	36 µM	1.45 µM	> 100 µM	12.2 µM	40.7 µM	21.4 µM	63.3 µM	–	–	–	–	–	–	–	–	–	–
Cc1ccc2c(N)c(C(=O)N[C@H]3CCc4cc(N5CC6CCC(C5)N6)ccc4C3)sc2n1	1.48 µM	2.36 µM	2.71 µM	2.58 µM	1.59 µM	1.9 µM	4.36 µM	2.84 µM	3.11 µM	3.24 µM	0.165 µM	0.291 µM	0.606 µM	0.452 µM	0.265 µM	0.569 µM	0.202 µM	0.501 µM	0.709 µM	0.577 µM
Cc1nc2cccc(NCc3ccc(C(=O)NO)cc3)c2c(=O)n1-c1ccccc1	11.9 µM	4.47 µM	6.79 µM	6.08 µM	2.61 µM	3.1 µM	> 100 µM	4.98 µM	–	3.15 µM	2.7 µM	1.65 µM	2.5 µM	2.01 µM	1.29 µM	1.64 µM	1.43 µM	2.11 µM	–	1.37 µM
O=C1C=Cc2ccccc2/C1=C/c1[nH]c(=O)[nH]c1O	76.8 µM	35 µM	84.3 µM	> 100 µM	3.89 µM	13 µM	7.83 µM	> 100 µM	> 100 µM	28.5 µM	5.8 µM	7.5 µM	13.2 µM	9.59 µM	1.3 µM	2.84 µM	1.67 µM	2.93 µM	3.45 µM	1.78 µM
COC(=O)Nc1nc2ccccc2c(=O)[nH]1	> 100 µM	> 100 µM	> 100 µM	> 100 µM	> 100 µM	> 100 µM	> 100 µM	> 100 µM	> 100 µM	> 100 µM	–	–	–	–	–	–	–	–	–	–
OCCCCC#Cc1ccccc1C#Cc1ccccc1C(F)(F)F	19 µM	> 100 µM	12.4 µM	44.4 µM	22.7 µM	24.4 µM	2.97 µM	31.9 µM	23.5 µM	24.1 µM	6.16 µM	8.46 µM	2.83 µM	16.7 µM	9.13 µM	11.6 µM	0.475 µM	17.7 µM	11.3 µM	11.8 µM
CNC(=O)c1cccc(-c2ccc3c(N4CCOC[C@@H]4C)nc(N4CCOC[C@@H]4C)nc3n2)c1	> 100 µM	> 100 µM and > 5.18 µM and 10.2 µM	34.3 µM and > 10 µM and > 64 µM	0.77 µM and 2.9 µM and 0.959 µM	> 100 µM	0.718 µM and 0.99 µM and 2.87 µM	> 100 µM	1.21 µM and 1.69 µM and 0.487 µM	0.339 µM and 0.438 µM and 0.452 µM	–	0.162 µM and 0.302 µM and 0.25 µM	0.153 µM and 0.273 µM and 0.17 µM	0.181 µM and 0.168 µM and 0.184 µM	0.0438 µM and 0.149 µM and 0.115 µM	0.0505 µM and 0.0991 µM and 0.0479 µM	0.109 µM and 0.17 µM and 0.176 µM	0.249 µM and 0.133 µM and 0.104 µM	0.0518 µM and 0.188 µM and 0.0589 µM	0.0393 µM and 0.082 µM and 0.0802 µM	0.0278 µM and 0.0604 µM and 0.0328 µM
CCSc1nc(N=Cc2cccs2)c2cn[nH]c2n1	> 100 µM	> 100 µM	> 100 µM	43.2 µM	> 100 µM	38.1 µM	7.21 µM	> 100 µM	23.1 µM	> 100 µM	15.1 µM	53.8 µM	4.51 µM	0.299 µM	48.5 µM	7.35 µM	2.1 µM	61 µM	8.39 µM	53.5 µM
COC(=O)/C(=C\c1c(C)[nH]c2ccccc12)S(=O)(=O)c1ccccc1	8.01 µM	29.4 µM	14.5 µM	19.5 µM	14.4 µM	–	> 100 µM	20.9 µM	13.3 µM	18.4 µM	2.94 µM	7.69 µM	2.74 µM	4.34 µM	3.19 µM	–	1.05 µM	6.97 µM	2.77 µM	4.39 µM
C=C1C(=O)OC2CC3(CO3)C3C(O)C(O)CC3(C)CC12 (stereo not drawn)	> 100 µM	> 100 µM	60.5 µM	> 100 µM	27.9 µM	42 µM	87.4 µM	> 100 µM	38 µM	–	–	–	–	–	–	–	–	–	–	–
COc1ccc(-c2nc(-c3ccccc3)c(-c3ccccc3)n2C2CC2)cc1OC1CCCC1	> 165 µM	> 165 µM	> 165 µM	> 165 µM	> 165 µM	125 µM	59.4 µM	> 165 µM	–	> 165 µM	94.5 µM	> 165 µM	> 165 µM	83.7 µM	62.1 µM	16.7 µM	7.92 µM	> 165 µM	–	64.6 µM
C=C(CN1CCc2ccccc2C1)c1ccc(C(=O)Nc2ccc(N)cc2)cc1	81.3 µM	> 100 µM	> 100 µM	> 100 µM	21 µM	30.9 µM	–	59.7 µM	> 100 µM	30.5 µM	21.1 µM	28.5 µM	20.5 µM	58.5 µM	3.89 µM	16.3 µM	–	20.2 µM	22.1 µM	3.93 µM
C[C@]12CC[C@@H]3c4ccc(O)cc4CC[C@H]3[C@@H]1CC[C@@H]2NS(=O)(=O)Cc1ccc(Cl)cc1	16.8 µM	8.14 µM	4.54 µM	12.6 µM	–	3.45 µM	> 100 µM	8.08 µM	4.56 µM	5.13 µM	3.99 µM	2.97 µM	1.75 µM	3.19 µM	–	1.77 µM	3.69 µM	2.59 µM	1.92 µM	1.39 µM
S=C(N/N=C/c1ccccn1)Nc1ccccn1	> 100 µM	9.22 µM	> 100 µM	11.8 µM	0.842 µM	11.3 µM	> 100 µM	5.85 µM	–	> 100 µM	2.58 µM	1.73 µM	0.642 µM	2.08 µM	0.241 µM	0.874 µM	0.52 µM	0.903 µM	–	1.01 µM
